Data on 16 molecules can be found in ChEMBL document CHEMBL2434902, “A new strategy to improve the metabolic stability of lactone: discovery of (20S,21S)-21-fluorocamptothecins as novel, hydrolytically stable topoisomerase I inhibitors” (J Med Chem, 2013).

Data set [1] deals with HCT-116. Description: Cytotoxicity against human HCT116 cells after 72 hrs by MTT assay. In kind it is functional, cell-based. To be noted: HCT-116, 72 h. On the technique in general: Formazan colour is commonly taken as a measure of viable cells.
Data set [2] has as its system A549. Description: Cytotoxicity against human A549 cells after 72 hrs by MTT assay. In kind it is functional, cell-based. The following applies: A549, 72 h.
Data set [3] deals with MDA-MB-435. Kind of data set: Cytotoxicity against human MDA-MB-435 cells after 72 hrs by MTT assay. In kind it is functional, cell-based. The following applies: MDA-MB-435, 72 h.
Data set [4] can be described thus: Stability of the compound in PBS buffer at pH 7.4 assessed as compound remaining after 6 hrs by HPLC method. Type of data set: physicochemical. The following applies: read-out: Stability.
The target in data set [5] is T1, DNA topoisomerase 1 (Homo sapiens) (UniProt P11387).
T1 sequence (whole entry): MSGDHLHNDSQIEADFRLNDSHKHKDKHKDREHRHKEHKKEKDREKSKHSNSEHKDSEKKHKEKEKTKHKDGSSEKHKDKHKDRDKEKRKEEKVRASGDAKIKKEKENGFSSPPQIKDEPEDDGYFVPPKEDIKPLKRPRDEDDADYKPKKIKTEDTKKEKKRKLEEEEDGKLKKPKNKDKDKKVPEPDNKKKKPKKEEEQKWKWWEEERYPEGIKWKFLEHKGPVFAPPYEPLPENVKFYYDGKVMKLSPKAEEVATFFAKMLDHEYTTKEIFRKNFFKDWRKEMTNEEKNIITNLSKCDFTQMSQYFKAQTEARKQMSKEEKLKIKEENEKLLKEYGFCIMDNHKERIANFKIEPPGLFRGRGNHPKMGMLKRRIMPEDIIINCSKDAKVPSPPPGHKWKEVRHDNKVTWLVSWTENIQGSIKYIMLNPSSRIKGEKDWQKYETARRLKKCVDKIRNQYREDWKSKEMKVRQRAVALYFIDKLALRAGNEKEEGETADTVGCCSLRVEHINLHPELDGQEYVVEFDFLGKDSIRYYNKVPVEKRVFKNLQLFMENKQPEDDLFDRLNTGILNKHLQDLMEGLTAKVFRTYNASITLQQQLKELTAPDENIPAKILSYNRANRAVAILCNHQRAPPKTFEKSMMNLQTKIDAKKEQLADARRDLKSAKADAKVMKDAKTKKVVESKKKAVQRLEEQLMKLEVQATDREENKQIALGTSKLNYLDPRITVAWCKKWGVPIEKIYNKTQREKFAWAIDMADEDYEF
Kind of data set: Inhibition of topoisomerase1 (unknown origin)-mediated supercoiled DNA relaxation at 100 uM after 15 mins by SDS-PAGE analysis.

For data set [6], the system named is Mus musculus. Kind of data set: Toxicity in BALB/C nude mouse xenografted with human A549 cells assessed as weight loss at 2 mg/kg, ip after 5 days relative to vehicle-treated control. To be noted: in vivo, 120 h. Also on record: dose 2 mg/kg, route intraperitoneal. In kind it is organism-based. For orientation: Xenograft models place foreign cells or tissue in a host animal.

In data set [7] the test system is A549. Kind of data set: Antitumor activity against human A549 cells xenografted in BALB/C nude mouse assessed as tumor growth inhibition at 4 mg/kg, ip administered for 5 days measured after day 30 to 33 relative to vehicle-treated control. Type of data set: functional. To be noted: route intraperitoneal, read-out: TGI.
Data set [8] deals with A549. Description: Antitumor activity against human A549 cells xenografted in ip dosed BALB/C nude mouse assessed as tumor growth inhibition administered for 5 days measured after day 30 to 33 relative to vehicle-treated control. In kind it is functional, organism-based.
In data set [9] the test system is A549. Description: Antitumor activity against human A549 cells xenografted in BALB/C nude mouse assessed as tumor growth inhibition at 2 mg/kg, ip administered for 5 days measured after day 30 to 33 relative to vehicle-treated control. In kind it is functional. To be noted: route intraperitoneal, read-out: TGI.
Data set [10] relates to A549. Kind of data set: Cell cycle arrest in human A549 cells assessed as accumulation at S phase at 10 uM after 36 hrs by propidium iodide staining-based flow cytometry. In kind it is functional. (Flow cytometry measures light scatter and fluorescence of single cells or particles in a stream.)
In data set [11] the test system is A549. Kind of data set: Induction of apoptosis in human A549 cells assessed as apoptotic cells at 0.5 uM after 48 hrs by AnnexinV-FITC/propidium iodide staining-based flow cytometry (reference value: 5.23%). Type of data set: functional.
Data set [12] deals with A549. Kind of data set: Induction of apoptosis in human A549 cells assessed as small, round floating cells at 10 uM after 48 hrs by immunostaining relative to control. In kind it is functional, cell-based.
Data set [13] has as its target T1, DNA topoisomerase 1 (Homo sapiens). Description: Inhibition of topoisomerase1 (unknown origin)-mediated DNA cleavage at 100 uM after 15 mins by SDS-PAGE analysis.
For data set [14], the target named is DNA topoisomerase 2-alpha (Homo sapiens) (UniProt P11388). Description: Inhibition of topoisomerase2 alpha (unknown origin)-mediated supercoiled DNA relaxation at 100 uM after 30 mins by SDS-PAGE analysis.
A short description of data set [15]: Stability of the compound in PBS buffer at pH 7.4. In kind it is physicochemical.
Data set [16] deals with A549. Kind of data set: Cell cycle arrest in human A549 cells assessed as decrease in G0/G1 phase at 10 uM after 36 hrs by propidium iodide staining-based flow cytometry. Type of data set: functional.
Data set [17] has as its system A549. Description: Antitumor activity against human A549 cells xenografted in BALB/C nude mouse assessed as tumor growth inhibition at 0.5 mg/kg, ip administered for 5 days measured after day 30 to 33 relative to vehicle-treated control. Type of data set: functional, organism-based. On the set-up: dose 0.5 mg/kg.

Calls of active or inactive are those of the source. The calls are words filed in the database; no cut-off is given here.

As usually defined, the IC50 is the concentration that inhibits the measured activity by half. Low readings indicate greater potency in that assay, high ones weaker potency in that assay.

Chain of DNA topoisomerase 2-alpha (Homo sapiens) (P11388 whole entry): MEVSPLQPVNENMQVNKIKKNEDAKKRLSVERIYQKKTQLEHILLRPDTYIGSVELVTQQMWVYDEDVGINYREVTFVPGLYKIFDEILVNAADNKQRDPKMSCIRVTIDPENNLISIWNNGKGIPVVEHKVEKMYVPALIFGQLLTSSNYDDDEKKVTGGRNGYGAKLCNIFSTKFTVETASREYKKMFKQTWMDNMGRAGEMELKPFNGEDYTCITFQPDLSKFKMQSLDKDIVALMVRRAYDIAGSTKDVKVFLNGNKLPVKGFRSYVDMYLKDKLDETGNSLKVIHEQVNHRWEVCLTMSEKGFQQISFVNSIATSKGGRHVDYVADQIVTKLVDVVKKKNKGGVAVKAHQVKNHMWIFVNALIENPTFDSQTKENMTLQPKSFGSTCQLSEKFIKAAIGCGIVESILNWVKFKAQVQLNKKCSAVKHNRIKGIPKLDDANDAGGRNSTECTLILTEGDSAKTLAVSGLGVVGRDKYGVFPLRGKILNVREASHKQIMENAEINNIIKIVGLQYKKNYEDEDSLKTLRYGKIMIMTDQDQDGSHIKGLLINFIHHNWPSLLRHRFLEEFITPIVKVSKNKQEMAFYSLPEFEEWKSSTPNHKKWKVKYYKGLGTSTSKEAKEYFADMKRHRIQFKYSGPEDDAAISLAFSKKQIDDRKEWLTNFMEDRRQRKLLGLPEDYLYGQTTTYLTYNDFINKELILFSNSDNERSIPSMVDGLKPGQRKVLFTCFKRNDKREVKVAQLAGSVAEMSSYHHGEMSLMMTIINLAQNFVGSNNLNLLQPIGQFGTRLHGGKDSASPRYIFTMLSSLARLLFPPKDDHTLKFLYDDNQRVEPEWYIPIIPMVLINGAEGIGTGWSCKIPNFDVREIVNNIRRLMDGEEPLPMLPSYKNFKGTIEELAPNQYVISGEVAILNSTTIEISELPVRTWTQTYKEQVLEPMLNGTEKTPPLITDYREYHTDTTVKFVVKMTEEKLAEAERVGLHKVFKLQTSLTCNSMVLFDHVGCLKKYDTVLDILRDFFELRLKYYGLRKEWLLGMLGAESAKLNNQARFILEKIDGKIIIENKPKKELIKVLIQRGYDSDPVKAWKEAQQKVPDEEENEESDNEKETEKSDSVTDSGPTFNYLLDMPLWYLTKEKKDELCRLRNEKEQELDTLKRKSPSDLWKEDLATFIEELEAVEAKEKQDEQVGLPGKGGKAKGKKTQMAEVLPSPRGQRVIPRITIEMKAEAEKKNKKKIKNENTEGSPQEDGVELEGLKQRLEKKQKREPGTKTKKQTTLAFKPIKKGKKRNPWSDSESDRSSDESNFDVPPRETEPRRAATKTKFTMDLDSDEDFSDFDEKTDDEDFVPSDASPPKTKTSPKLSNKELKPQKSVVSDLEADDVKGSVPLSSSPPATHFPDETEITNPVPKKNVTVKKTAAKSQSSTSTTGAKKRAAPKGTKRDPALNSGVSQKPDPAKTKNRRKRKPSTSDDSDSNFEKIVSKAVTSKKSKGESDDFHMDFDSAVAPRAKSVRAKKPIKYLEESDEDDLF

In the case of `CC[C@]1(O)c2cc3n(c(=O)c2CO[C@H]1F)Cc1c-3nc2ccccc2c1C1CC1`, the IC50 in data set [1] came out at 3.39 µM; in [2], 15.5 µM; in [3], 9.41 µM.
Taken in the same sequence, the figures for `CCCc1c2c(nc3ccccc13)-c1cc3c(c(=O)n1C2)CO[C@@H](F)[C@]3(O)CC` were 0.82 µM, 2.54 µM and 2.32 µM.
Taken in the same sequence, the figures for `CC[C@]1(O)c2cc3n(c(=O)c2CO[C@H]1F)Cc1c-3nc2ccccc2c1C1CCC1` were 95.4 µM, 1 µM and 15.8 µM.
For the molecule `CC[C@]1(O)c2cc3n(c(=O)c2CO[C@H]1F)Cc1cc2ccccc2nc1-3` [(20S,21S)-FLUOROCAMPTOTHECIN], the figures for the IC50 in data set [1], in data set [2] and in data set [3] were 6.35 µM, 9.95 µM and 58.3 µM, respectively. Besides, the remaining at 6 h in data set [4] was found to be 96%. Further, the inhibition result in data set [5] was “Active”.
For `CC[C@]1(O)c2cc3n(c(=O)c2CO[C@H]1F)Cc1cc2cc(OC)ccc2nc1-3`, the results for the IC50 in [1], in [2] and in data set [3] were 6.15 µM, 41.7 µM and above 100 µM, respectively. Besides, the inhibition entry in [5] is “Active”.
Take `CC[C@]1(O)c2cc3n(c(=O)c2CO[C@H]1F)Cc1c-3nc2ccccc2c1C1CCCC1`: the results for the IC50 in data set [1], in data set [2] and in [3] were 19.8 µM, 4.14 µM and 11.8 µM, respectively.
`CC[C@]1(O)c2cc3n(c(=O)c2CO[C@@H]1F)Cc1cc2ccccc2nc1-3` [(20S,21R)-FLUOROCAMPTOTHECIN]: the IC50 in data set [1] was 50.9 µM; in data set [2], 46.2 µM; in [3] it was above 100 µM. In data set [5], the inhibition result is “Active”.
Take `CCc1c2c(nc3ccccc13)-c1cc3c(c(=O)n1C2)CO[C@@H](F)[C@]3(O)CC`: the values for the IC50 in data set [1], in [2] and in data set [3] were 8.53 µM, 12.7 µM and 10.9 µM, respectively.
On to `CC[C@]1(O)c2cc3n(c(=O)c2CO[C@H]1F)Cc1c-3nc2ccccc2c1C`, for which the IC50 in [1] was 1.46 µM; in data set [2], 4.23 µM; in data set [3] it was 8.66 µM.
With `CCCCc1c2c(nc3ccccc13)-c1cc3c(c(=O)n1C2)CO[C@@H](F)[C@]3(O)CC`, the IC50 is 0.27 µM in data set [1], 17.7 µM in [2] and 3.53 µM in data set [3]. In data set [5], the inhibition entry is “Active”.
For `CCc1c2c(nc3ccc(OC)cc13)-c1cc3c(c(=O)n1C2)CO[C@@H](F)[C@]3(O)CC`, the figures for the IC50 in data set [1], in [2] and in [3] were 1.45 µM, 6.35 µM and 12.7 µM, respectively.
`CC[C@@]1(O)C(=O)OCc2c1cc1n(c2=O)Cc2cc3ccccc3nc2-1` [CAMPTOTHECIN]: the figures for the IC50 in [1], in data set [2] and in data set [3] were 0.07 µM, 0.65 µM and below 0.001 µM, respectively. Also, the remaining at 6 h in [4] was determined as 42.7%.
Turning to `CC[C@]1(O)c2cc3n(c(=O)c2CO[C@H]1F)Cc1c-3nc2ccccc2c1C1CCCCC1` [(20S,21S)-7-CYCLOHEXYLFLUOROCAMPTOTHECIN], the figures for the Activity entry in [6] and in data set [11] were “Non-toxic” and 94.11%, respectively. Further, in data set [7], the inhibition in vivo at 4 mg/kg was 63%. Also, the TGI entry in [8] was “Dose-dependent effect”. Moreover, the inhibition in vivo at 2 mg/kg in [9] came out at 34%. Besides, the result in [10], in data set [12] and in [16] was Active. Also, the inhibition entry in data set [13] and in [14] was “inactive” each time. In [15], the Stability result is on record as “Stable”. In addition, the IC50 in data set [1] was determined as 0.07 µM; in [2], 0.71 µM; in [3], 0.41 µM. The inhibition entry in data set [5] was “Active”.
For `CC[C@]1(O)c2cc3n(c(=O)c2CO[C@H]1F)Cc1c-3nc2ccccc2c1C(C)C`, the figures for the 50% inhibitory concentration (IC50) in data set [1], in data set [2] and in data set [3] were 65.7 µM, above 100 µM and 41.1 µM, respectively.
For the molecule `CC[C@@]1(O)C(=O)OCc2c1cc1n(c2=O)Cc2cc3c(CN(C)C)c(O)ccc3nc2-1` [TOPOTECAN], the Activity result in data set [6] is on record as “Toxic”. Further, the TGI result in [17] is “Active”.
`CC[C@]1(O)c2cc3n(c(=O)c2CO[C@H]1F)Cc1cc2c([N+](=O)[O-])cccc2nc1-3`: the IC50 in data set [1] was determined as 1.02 µM; in [2] it was 11.3 µM; in data set [3], 53 µM. Also, the inhibition result in data set [5] is “Active”.
